Reference: US9586962B2, “Disubstituted octahydropyrrolo [3,4-C] pyrroles as orexin receptor modulators” (Janssen Pharmaceutica NV, priority 2011, dated 2017)

molecular target: human orexin 2 receptor (Homo sapiens (Human), UniProt O43614); experiment: Human orexin 2 receptor Ca2+ mobilization assay (FLIPR, PFSK cells, orexin B 100 nM); assay type: cell-based; conditions: modified Cheng-Prusoff correction, read-out: OR 2 Kb
Sequence (O43614 whole entry): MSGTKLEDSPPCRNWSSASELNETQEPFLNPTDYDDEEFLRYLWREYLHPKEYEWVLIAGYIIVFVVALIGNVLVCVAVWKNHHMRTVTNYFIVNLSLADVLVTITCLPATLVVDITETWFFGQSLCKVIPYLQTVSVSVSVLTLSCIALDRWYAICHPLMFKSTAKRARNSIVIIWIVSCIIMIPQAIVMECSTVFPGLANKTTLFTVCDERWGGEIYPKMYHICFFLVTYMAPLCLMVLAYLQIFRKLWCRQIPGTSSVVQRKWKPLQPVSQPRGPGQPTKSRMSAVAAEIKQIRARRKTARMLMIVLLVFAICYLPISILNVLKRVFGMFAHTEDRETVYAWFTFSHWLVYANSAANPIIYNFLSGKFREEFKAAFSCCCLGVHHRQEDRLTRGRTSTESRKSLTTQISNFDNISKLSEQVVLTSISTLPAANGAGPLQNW

**Q.** How did the Kb turn out when Cc1cc(C)nc(N2CC3CN(C(=O)c4ccc(F)cc4-c4ncccn4)CC3C2)n1 (stereo not drawn) [Example 231, (5-(4,6-Dimethylpyrimidin-2-yl)hexahydropyrrolo[3,4-c]pyrrol-2(1H)-yl)(4-fluoro-2-(pyrimidin-2-yl)phenyl)methanone] was run?
**A.** 7 nM

**Q.** Cc1cc(C)nc(N2CC3CN(C(=O)c4cccc(F)c4I)CC3C2)n1 (stereo not drawn) [Example 232, (5-(4,6-Dimethylpyrimidin-2-yl)hexahydropyrrolo[3,4-c]pyrrol-2(1H)-yl)(3-fluoro-2-iodophenyl)methanone] was tested. Which Kb did it give?
**A.** 7 nM

**Q.** Which Kb does the source give for Cc1cc(C)nc(N2CC3CN(C(=O)c4cccnc4-c4ccn[nH]4)CC3C2)n1 (stereo not drawn) [Example 237, (2-(1H-Pyrazol-5-yl)pyridin-3-yl)(5-(4,6-dimethylpyrimidin-2-yl)hexahydropyrrolo[3,4-c]pyrrol-2(1H)-yl)methanone] here?
**A.** 18 nM

**Q.** Cc1nc(N2CC3CN(C(=O)c4cccc(F)c4-c4ncccn4)CC3C2)nc(C)c1C (stereo not drawn) [Example 239, (3-Fluoro-2-(pyrimidin-2-yl)phenyl)(5-(4,5,6-trimethylpyrimidin-2-yl)hexahydropyrrolo[3,4-c]pyrrol-2(1H)-yl)methanone] was tested. Which Kb did it give?
**A.** 4 nM

**Q.** For Cc1nc(N2CC3CN(C(=O)c4cccc(F)c4-n4nccn4)CC3C2)nc(C)c1C (stereo not drawn) [Example 240, (3-Fluoro-2-(2H-1,2,3-triazol-2-yl)phenyl)(5-(4,5,6-trimethylpyrimidin-2-yl)hexahydropyrrolo[3,4-c]pyrrol-2(1H)-yl)methanone], which Kb is on record?
**A.** 3 nM

**Q.** With COc1ccc(-n2nccn2)c(C(=O)N2CC3CN(c4nc(C)c(C)c(C)n4)CC3C2)c1 (stereo not drawn) [Example 241, (5-Methoxy-2-(2H-1,2,3-triazol-2-yl)phenyl)(5-(4,5,6-trimethylpyrimidin-2-yl)hexahydropyrrolo[3,4-c]pyrrol-2(1H)-yl)methanone] as the compound, how does the Kb read?
**A.** 7 nM

**Q.** For O=C(c1cccc(F)c1-n1nccn1)N1CC2CN(c3ncc4cc(F)ccc4n3)CC2C1 (stereo not drawn) [Example 242, (3-Fluoro-2-(2H-1,2,3-triazol-2-yl)phenyl)(5-(6-fluoroquinazolin-2-yl)hexahydropyrrolo[3,4-c]pyrrol-2(1H)-yl)methanone], which Kb is on record?
**A.** 13 nM

**Q.** How did the Kb turn out when O=C(c1cccc(F)c1-c1ncccn1)N1CC2CN(c3ncc4cc(F)ccc4n3)CC2C1 (stereo not drawn) [Example 243, (3-Fluoro-2-(pyrimidin-2-yl)phenyl)(5-(6-fluoroquinazolin-2-yl)hexahydropyrrolo[3,4-c]pyrrol-2(1H)-yl)methanone] was run?
**A.** 6 nM

**Q.** COc1ccc(-n2nccn2)c(C(=O)N2CC3CN(c4cnc5cc(F)c(F)cc5n4)CC3C2)c1 (stereo not drawn) [Example 245, (5-(6,7-Difluoroquinoxalin-2-yl)hexahydropyrrolo[3,4-c]pyrrol-2(1H)-yl)(5-methoxy-2-(2H-1,2,3-triazol-2-yl)phenyl)methanone] was tested. Which Kb did it give?
**A.** 15 nM

**Q.** With O=C(c1c(F)cccc1-n1nccn1)N1CC2CN(c3cnc4cc(F)c(F)cc4n3)CC2C1 (stereo not drawn) [Example 246, (5-(6,7-Difluoroquinoxalin-2-yl)hexahydropyrrolo[3,4-c]pyrrol-2(1H)-yl)(2-fluoro-6-(2H-1,2,3-triazol-2-yl)phenyl)methanone] as the compound, how does the Kb read?
**A.** 11 nM

**Q.** COc1ccc(C(=O)N2CC3CN(c4nc(C)cc(C)n4)CC3C2)c(-c2ncccn2)c1 (stereo not drawn) [Example 272, (5-(4,6-Dimethylpyrimidin-2-yl)hexahydropyrrolo[3,4-c]pyrrol-2(1H)-yl)(4-methoxy-2-(pyrimidin-2-yl)phenyl)methanone] was tested. Which Kb did it give?
**A.** 7 nM

**Q.** For Cc1cc(C)nc(N2CC3CN(C(=O)c4ccccc4OC(F)(F)F)CC3C2)n1 (stereo not drawn) [Example 274, (5-(4,6-Dimethylpyrimidin-2-yl)hexahydropyrrolo[3,4-c]pyrrol-2(1H)-yl)(2-(trifluoromethoxy)phenyl)methanone], which Kb is on record?
**A.** 16 nM

**Q.** For Cc1cc(C)nc(N2CC3CN(C(=O)c4cccc(F)c4-c4ncccn4)CC3C2)n1 (stereo not drawn) [Example 283, 2-(4,6-Dimethylpyrimidin-2-yl)-5-[(3-fluoro-2-pyrimidin-2-ylphenyl)carbonyl]octahydropyrrolo[3,4-c]pyrrole], which Kb is on record?
**A.** 2 nM

**Q.** For Cc1cc(C)nc(N2CC3CN(C(=O)c4cccc(F)c4-c4ccn[nH]4)CC3C2)n1 (stereo not drawn) [Example 284, 2-(4,6-Dimethylpyrimidin-2-yl)-5-{[3-fluoro-2-(1H-pyrazol-5-yl)phenyl]carbonyl}octahydropyrrolo[3,4-c]pyrrole], which Kb is on record?
**A.** 2 nM

**Q.** With Cc1nc(N2CC3CN(C(=O)c4ccccc4-n4nccn4)CC3C2)ncc1F (stereo not drawn) [Example 290, 2-(5-Fluoro-4-methylpyrimidin-2-yl)-5-{[2-(2H-1,2,3-triazol-2-yl)phenyl]carbonyl}octahydropyrrolo[3,4-c]pyrrole] as the compound, how does the Kb read?
**A.** 7 nM

**Q.** Cc1cc(C)nc(N2CC3CN(C(=O)c4ccccc4-c4nc(C)no4)CC3C2)n1 (stereo not drawn) [Example 306, 2-(4,6-Dimethylpyrimidin-2-yl)-5-{[2-(3-methyl-1,2,4-oxadiazol-5-yl)phenyl]carbonyl}octahydropyrrolo[3,4-c]pyrrole] was tested. Which Kb did it give?
**A.** 13 nM

**Q.** Cc1cc(C)nc(N2CC3CN(C(=O)c4ccccc4-c4ncn(C)n4)CC3C2)n1 (stereo not drawn) [Example 308, 2-(4,6-Dimethylpyrimidin-2-yl)-5-{[2-(1-methyl-1H-1,2,4-triazol-3-yl)phenyl]carbonyl}octahydropyrrolo[3,4-c]pyrrole] was tested. Which Kb did it give?
**A.** 5 nM

**Q.** Cc1noc(-c2ccccc2C(=O)N2CC3CN(c4nc(C)c(C)c(C)n4)CC3C2)n1 (stereo not drawn) [Example 309, 2-{[2-(3-Methyl-1,2,4-oxadiazol-5-yl)phenyl]carbonyl}-5-(4,5,6-trimethylpyrimidin-2-yl)octahydropyrrolo[3,4-c]pyrrole] was tested. Which Kb did it give?
**A.** 6 nM

**Q.** For Cc1noc(-c2ccccc2C(=O)N2CC3CN(c4ncc(F)c(C)n4)CC3C2)n1 (stereo not drawn) [Example 310, 2-(5-Fluoro-4-methylpyrimidin-2-yl)-5-{[2-(3-methyl-1,2,4-oxadiazol-5-yl)phenyl]carbonyl}octahydropyrrolo[3,4-c]pyrrole], which Kb is on record?
**A.** 15 nM

**Q.** Which Kb does the source give for Cc1nc(N2CC3CN(C(=O)c4ccccc4-c4ncn(C)n4)CC3C2)nc(C)c1C (stereo not drawn) [Example 311, 2-{[2-(1-Methyl-1H-1,2,4-triazol-3-yl)phenyl]carbonyl}-5-(4,5,6-trimethylpyrimidin-2-yl)octahydropyrrolo[3,4-c]pyrrole] here?
**A.** 3 nM

**Q.** For Cc1nc(N2CC3CN(C(=O)c4ccccc4-c4ncn(C)n4)CC3C2)ncc1F (stereo not drawn) [Example 312, 2-(5-Fluoro-4-methylpyrimidin-2-yl)-5-{[2-(1-methyl-1H-1,2,4-triazol-3-yl)phenyl]carbonyl}octahydropyrrolo[3,4-c]pyrrole], which Kb is on record?
**A.** 11 nM

**Q.** With Cc1cc(C)nc(N2CC3CN(C(=O)c4c(F)cccc4-c4nc(C)no4)CC3C2)n1 (stereo not drawn) [Example 315, 2-(4,6-Dimethylpyrimidin-2-yl)-5-{[2-fluoro-6-(3-methyl-1,2,4-oxadiazol-5-yl)phenyl]carbonyl}octahydropyrrolo[3,4-c]pyrrole] as the compound, how does the Kb read?
**A.** 10 nM

**Q.** With Cc1noc(-c2ccccc2C(=O)N2CC3CN(c4nc(C)c(Cl)c(C)n4)CC3C2)n1 (stereo not drawn) [Example 318, 2-(5-Chloro-4,6-dimethylpyrimidin-2-yl)-5-{[2-(3-methyl-1,2,4-oxadiazol-5-yl)phenyl]carbonyl}octahydropyrrolo[3,4-c]pyrrole] as the compound, how does the Kb read?
**A.** 3 nM

**Q.** For Cc1noc(-c2ccccc2C(=O)N2CC3CN(c4nc(C)c5c(n4)CCC5)CC3C2)n1 (stereo not drawn) [Example 319, 4-Methyl-2-[5-{[2-(3-methyl-1,2,4-oxadiazol-5-yl)phenyl]carbonyl}hexahydropyrrolo[3,4-c]pyrrol-2(1H)-yl]-6,7-dihydro-5H-cyclopenta[d]pyrimidine], which Kb is on record?
**A.** 7 nM
